In patent publication US20250041429A1, “COMPOUND HAVING BTK PROTEIN DEGRADATION ACTIVITY, AND MEDICAL USES THEREOF” (UBIX THERAPEUTICS, INC., priority 2021, published 2025):

Target: T1, BTK protein (Homo sapiens, UniProt Q06187)
T1 construct: endogenous in cells; host or cells: TMD-8 cells
Assay: Measurement of BTK protein degradation ability in TMD-8 cells (Western blotting)
Assay type: cell-based
Settings: harvested after 24 hours; for BTK degradation (%) 1 nM: compound 1 nM; for BTK degradation (%) 10 nM: compound 10 nM; for BTK degradation (%) 100 nM: compound 100 nM
Summary of the method: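 BTK levels were measured by immunoblotting of equal-protein RIPA lysates, normalized to GAPDH or β-actin, with chemiluminescent or infrared detection. Lysates came from TMD-8 cells exposed to compound for 24 h at final concentrations of 0.1, 1, 10 μM or 0.0001–0.1 μM, against a DMSO control.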

T1 sequence (Q06187 whole entry): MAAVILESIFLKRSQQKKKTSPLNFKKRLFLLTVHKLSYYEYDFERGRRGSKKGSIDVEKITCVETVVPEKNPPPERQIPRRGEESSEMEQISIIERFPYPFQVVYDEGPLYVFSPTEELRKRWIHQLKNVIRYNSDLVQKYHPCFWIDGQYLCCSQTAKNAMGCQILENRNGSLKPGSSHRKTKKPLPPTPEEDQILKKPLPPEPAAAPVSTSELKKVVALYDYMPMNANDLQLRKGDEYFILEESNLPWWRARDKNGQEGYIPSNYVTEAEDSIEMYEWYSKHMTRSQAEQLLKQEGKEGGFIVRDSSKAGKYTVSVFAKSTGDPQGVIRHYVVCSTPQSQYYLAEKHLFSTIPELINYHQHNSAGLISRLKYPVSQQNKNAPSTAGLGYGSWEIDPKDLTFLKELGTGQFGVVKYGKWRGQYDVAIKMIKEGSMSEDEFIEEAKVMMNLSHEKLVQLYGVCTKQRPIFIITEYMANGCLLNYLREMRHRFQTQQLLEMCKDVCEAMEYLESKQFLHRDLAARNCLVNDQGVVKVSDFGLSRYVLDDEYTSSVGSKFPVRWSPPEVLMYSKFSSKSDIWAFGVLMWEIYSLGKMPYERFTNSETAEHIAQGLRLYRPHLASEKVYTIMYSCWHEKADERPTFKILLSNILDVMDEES

BTK degradation (%) 1 nM [%] | BTK degradation (%) 10 nM [%] | BTK degradation (%) 100 nM [%] | SMILES
−0.5 | 33 | 87 | Cc1cc(-c2ccnc(Nc3ccc(N4CCN(CC5CCN(C(=O)c6cccc(N7CCC(=O)NC7=O)c6)CC5)CC4)cc3)n2)ccc1CNC(=O)N1CC(OC(C)C)C1 [Example 89, N-(4-(2-((4-(4-((1-(3-(2,4-dioxotetrahydropyrimidin-1 (2H)-yl)benzoyl)piperidin-4-yl)methyl)piperazin-1-yl)phenyl)amino)pyrimidin-4-yl)-2-methylbenzyl)-3-isopropoxyazetidine-1-carboxamide]
4 | 10 | 37.5 | COc1ccc(C(=O)N2CCC(CN3CCN(c4ccc(Nc5nccc(-c6cc(F)cc(NC(=O)N7CC(OC(C)C)C7)c6C)n5)cc4)CC3)CC2)cc1N1CCC(=O)NC1=O [Example 90, N-(3-(2-((4-(4-((1-(3-(2,4-dioxotetrahydropyrimidin-1 (2H)-yl)-4-methoxybenzoyl)piperidin-4-yl)methyl)piperazin-1-yl)phenyl)amino)pyrimidin-4-yl)-5-fluoro-2-methylphenyl)-3-isopropoxyazetidine-1-carboxamide]
4.5 | 68.5 | 95.0 | Cc1cc(-c2ccnc(Nc3cnn(C4CCN(CC5CCN(C(=O)c6cccc(NC7CCC(=O)NC7=O)c6)CC5)CC4)c3)n2)ccc1CNC(=O)N1CC(OC(C)C)C1 (stereo not drawn) [Example 91, N-(4-(2-((1-(1-((1-(3-((2,6-dioxopiperidin-3-yl)amino)benzoyl)piperidin-4-yl)methyl)piperidin-4-yl)-1H-pyrazol-4-yl)amino)pyrimidin-4-yl)-2-methylbenzyl)-3-isopropoxyazetidine-1-carboxamide]
7.0 | 33.5 | 89.0 | Cc1cc(-c2ccnc(Nc3cnn(C4CCN(CC5CN(C(=O)c6cccc(NC7CCC(=O)NC7=O)c6)C5)CC4)c3)n2)ccc1CNC(=O)N1CC(OC(C)C)C1 (stereo not drawn) [Example 92, N-(4-(2-((1-(1-((1-(3-((2,6-dioxopiperidin-3-yl)amino)benzoyl)azetidin-3-yl)methyl)piperidin-4-yl)-1H-pyrazol-4-yl)amino)pyrimidin-4-yl)-2-methylbenzyl)-3-isopropoxyazetidine-1-carboxamide]
62.0 | 94.5 | 98.5 | Cc1cc(-c2ccnc(Nc3ccc(N4CCN(CC5CCN(C(=O)c6cccc(NC7CCC(=O)NC7=O)c6)CC5)CC4)cc3)n2)ccc1CNC(=O)c1cnn(C(C)C)c1 (stereo not drawn) [Example 93, N-(4-(2-((4-(4-((1-(3-((2,6-dioxopiperidin-3-yl)amino)benzoyl)piperidin-4-yl)methyl)piperazin-1-yl)phenyl)amino)pyrimidin-4-yl)-2-methylbenzyl)-1-isopropyl-1H-pyrazole-4-carboxamide]
59.5 | 93.5 | 98.5 | Cc1cc(-c2ccnc(Nc3ccc(N4CCN(CC5CN(C(=O)c6cccc(NC7CCC(=O)NC7=O)c6)C5)CC4)cc3)n2)ccc1CNC(=O)c1cnn(C(C)C)c1 (stereo not drawn) [Example 94, N-(4-(2-((4-(4-((1-(3-((2,6-dioxopiperidin-3-yl)amino)benzoyl)azetidin-3-yl)methyl)piperazin-1-yl)phenyl)amino)pyrimidin-4-yl)-2-methylbenzyl)-1-isopropyl-1H-pyrazole-4-carboxamide]
67.5 | 94.5 | 98.0 | Cc1cc(-c2ccnc(Nc3ccc(N4CCN(CC5CCN(C(=O)c6cccc(NC7CCC(=O)NC7=O)c6)CC5)CC4)cc3)n2)ccc1CNC(=O)c1cnn(C(C)(C)C)c1 (stereo not drawn) [Example 95, 1-(tert-butyl)-N-(4-(2-((4-(4-((1-(3-((2,6-dioxopiperidin-3-yl)amino)benzoyl)piperidin-4-yl)methyl)piperazin-1-yl)phenyl)amino)pyrimidin-4-yl)-2-methylbenzyl)-1H-pyrazole-4-carboxamide]
70.0 | 95.5 | 98.0 | Cc1cc(-c2ccnc(Nc3ccc(N4CCN(CC5CN(C(=O)c6cccc(NC7CCC(=O)NC7=O)c6)C5)CC4)cc3)n2)ccc1CNC(=O)c1cnn(C(C)(C)C)c1 (stereo not drawn) [Example 96, 1-(tert-butyl)-N-(4-(2-((4-(4-((1-(3-((2,6-dioxopiperidin-3-yl)amino)benzoyl)azetidin-3-yl)methyl)piperazin-1-yl)phenyl)amino)pyrimidin-4-yl)-2-methylbenzyl)-1H-pyrazole-4-carboxamide]
67.5 | 94.0 | 98.5 | Cc1cc(-c2ccnc(Nc3ccc(N4CCN(CC5CCN(C(=O)c6cccc(NC7CCC(=O)NC7=O)c6)CC5)CC4)cc3)n2)ccc1CNC(=O)c1cn(C(C)(C)C)nn1 (stereo not drawn) [Example 97]

The remaining lines, values behind:

SMILES | BTK degradation (%) 1 nM [%] | BTK degradation (%) 10 nM [%] | BTK degradation (%) 100 nM [%]
Cc1cc(-c2ccnc(Nc3ccc(N4CCN(CC5CCN(c6cccc(N7CCC(=O)NC7=O)c6)CC5)CC4)cc3)n2)ccc1CNC(=O)c1cnn(C(C)(C)C)c1 [Example 81, 1-(tert-butyl)-N-(4-(2-((4-(4-((1-(3-(2,4-dioxotetrahydropyrimidin-1 (2H)-yl)phenyl)piperidin-4-yl)methyl)piperazin-1-yl)phenyl)amino)pyrimidin-4-yl)-2-methylbenzyl)-1H-pyrazole-4-carboxamide] | 65.0 | 97.0 | 99.5
Cc1cc(-c2ccnc(Nc3ccc(N4CCN(CC5CCN(c6cccc(N7CCC(=O)NC7=O)c6)CC5)CC4)nc3)n2)ccc1CNC(=O)c1cnn(C(C)C)c1 [Example 82, N-(4-(2-((6-(4-((1-(3-(2,4-dioxotetrahydropyrimidin-1 (2H)-yl)phenyl)piperidin-4-yl)methyl)piperazin-1-yl)pyridin-3-yl)amino)pyrimidin-4-yl)-2-methylbenzyl)-1-isopropyl-1H-pyrazole-4-carboxamide] | 32.0 | 87.5 | 99.5
Cc1cc(-c2ccnc(Nc3ccc(N4CCN(CC5CCN(c6cccc(N7CCC(=O)NC7=O)c6)CC5)CC4)nc3)n2)ccc1CNC(=O)c1cnn(C(C)(C)C)c1 [Example 83, 1-(tert-butyl)-N-(4-(2-((6-(4-((1-(3-(2,4-dioxotetrahydropyrimidin-1 (2H)-yl)phenyl)piperidin-4-yl)methyl)piperazin-1-yl)pyridin-3-yl)amino)pyrimidin-4-yl)-2-methylbenzyl)-1H-pyrazole-4-carboxamide] | 51.0 | 96.5 | 99.5
Cc1cc(-c2ccnc(Nc3ccc(C4CCN(CC5CCN(c6cccc(N7CCC(=O)NC7=O)c6)CC5)CC4)cc3)n2)ccc1CNC(=O)c1cnn(C(C)C)c1 [Example 84, N-(4-(2-((4-(1-((1-(3-(2,4-dioxotetrahydropyrimidin-1 (2H)-yl)phenyl)piperidin-4-yl)methyl)piperidin-4-yl)phenyl)amino)pyrimidin-4-yl)-2-methylbenzyl)-1-isopropyl-1H-pyrazole-4-carboxamide] | 36.0 | 92.0 | 99.0
Cc1cc(-c2ccnc(Nc3ccc(C4CCN(CC5CCN(c6cccc(N7CCC(=O)NC7=O)c6)CC5)CC4)cc3)n2)ccc1CNC(=O)c1cnn(C(C)(C)C)c1 [Example 85, 1-(tert-butyl)-N-(4-(2-((4-(1-((1-(3-(2,4-dioxotetrahydropyrimidin-1 (2H)-yl)phenyl)piperidin-4-yl)methyl)piperidin-4-yl)phenyl)amino)pyrimidin-4-yl)-2-methylbenzyl)-1H-pyrazole-4-carboxamide] | 45.5 | 93.5 | 98.5
COc1ccc(C(=O)N2CCC(CN3CCN(c4ccc(Nc5nccc(-c6ccc(CNC(=O)N7CC(OC(C)C)C7)c(C)c6)n5)cc4)CC3)CC2)cc1N1CCC(=O)NC1=O [Example 86, N-(4-(2-((4-(4-((1-(3-(2,4-dioxotetrahydropyrimidin-1 (2H)-yl)-4-methoxybenzoyl)piperidin-4-yl)methyl)piperazin-1-yl)phenyl)amino)pyrimidin-4-yl)-2-methylbenzyl)-3-isopropoxyazetidine-1-carboxamide] | 22 | 90 | 97.5
Cc1cc(-c2ccnc(Nc3ccc(N4CCN(CC5CCN(C(=O)c6cccc(NC7CCC(=O)NC7=O)c6)CC5)CC4)cc3)n2)ccc1CNC(=O)N1CC(OC(C)C)C1 (stereo not drawn) [Example 87, N-(4-(2-((4-(4-((1-(3-((2,6-dioxopiperidin-3-yl)amino)benzoyl)piperidin-4-yl)methyl)piperazin-1-yl)phenyl)amino)pyrimidin-4-yl)-2-methylbenzyl)-3-isopropoxyazetidine-1-carboxamide] | 36.5 | 94.5 | 98.5
Cc1cc(-c2ccnc(Nc3ccc(N4CCN(CC5CN(C(=O)c6cccc(NC7CCC(=O)NC7=O)c6)C5)CC4)cc3)n2)ccc1CNC(=O)N1CC(OC(C)C)C1 (stereo not drawn) [Example 88, N-(4-(2-((4-(4-((1-(3-((2,6-dioxopiperidin-3-yl)amino)benzoyl)azetidin-3-yl)methyl)piperazin-1-yl)phenyl)amino)pyrimidin-4-yl)-2-methylbenzyl)-3-isopropoxyazetidine-1-carboxamide] | 35.5 | 94.5 | 98.5
